From the supplement of paper PMC8882468

How the values were obtained:
Test in all cases: CTG-3D luminescence at 96 h relative to day-0 seeding control (ratio to day 0); higher = more growth / less cytotoxicity
[1] = test system: HCI-005.E2 (organoid from a breast cancer xenograft with a HER2-positive history)
Description: (§1)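 PDX-derived breast cancer organoids (PDxO) in 384-well Matrigel plates, 8-point dose (0.000000625-100 uM), 96 h at 37 C; CellTiter-Glo 3D luminescence normalised to the day-0 seeding control (mean of 4 technical replicates over mean of 4 day-0 wells).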

[2] = test system: HCI-002 (organoid from a triple-negative breast cancer xenograft)
Description: as §1

[3] = test system: HCI-010 (organoid from a breast cancer xenograft)
Description: as §1

[4] = test system: HCI-003.E2 (organoid from an ER-positive breast cancer xenograft)
Description: as §1

[5] = test system: HCI-001 (organoid from a triple-negative breast cancer xenograft)
Description: as §1

O=c1[nH]cc(F)c(=O)[nH]1 [5-fluorouracil]
CTG-3D luminescence at 96 h
Settings | 12.5 pM | 0.00025 µM | 0.005 µM | 0.1 µM | 1 µM | 10 µM | 100 µM | 625 fM
[1] | 1.91 | 1.66 | 1.64 | 2.48 | 1.78 | 1.18 | 0.891 | 1.69
[4] | 2.25 | 2.06 | 1.93 | 2.08 | 1.85 | 1.87 | 0.993 | 2.19

CTG-3D luminescence at 96 h
Settings | 12.5 pM | 0.00025 µM | 0.005 µM | 0.1 µM | 1 µM | 10 µM | 100 µM | 625 fM
[2], days in culture: 62 | 2.85 | 2.76 | 3.08 | 2.64 | 2.28 | 2.07 | 1.07 | 3.16
[2], days in culture: 82 | 2.94 | 2.81 | 2.15 | 2.78 | 2.66 | 1.66 | 1.08 | 3.04
[2], days in culture: 91 | 4.34 | 3.73 | 3.78 | 4.16 | 2.98 | 3.14 | 1.6 | 4.03
[2], days in culture: 191 | 2.53 | 2.58 | 2.45 | 2.4 | 2.34 | 1.91 | 1.22 | 2.43
[2], days in culture: 209 | 2.41 | 2.39 | 2.11 | 2.23 | 2.05 | 1.43 | 1.02 | 2.45
[2], days in culture: 227 | 6.3 | 6.54 | 6.31 | 7.6 | 5.98 | 3.45 | 1.93 | 6.49
[3], days in culture: 52 | 2.25 | 2.58 | 2.49 | 2.66 | 2.42 | 2.48 | 1.51 | 2.55
[3], days in culture: 65 | 1.67 | 1.68 | 1.87 | 1.73 | 1.83 | 1.73 | 1.18 | 1.66
[3], days in culture: 103 | 3.85 | 3.56 | 3.46 | 3.56 | 3.17 | 2.42 | 2.1 | 3.28
[5], days in culture: 240 | 1.75 | 1.08 | 1.16 | 0.972 | 1.31 | 0.84 | 0.903 | 1.74
[5], days in culture: 260 | 2.43 | 1.07 | 2.1 | 1.43 | 1.62 | 1.42 | 1.14 | 1.09
[5], days in culture: 269 | 1.52 | 1.48 | 1.32 | 1.97 | 1.62 | 2.03 | 1.46 | 1.77
[5], days in culture: 327 | 1.6 | 1.41 | 2.11 | 1.91 | 1.54 | 1.38 | 1.51 | 1.69
[5], days in culture: 346 | 1.42 | 1.55 | 1.28 | 1.28 | 1.41 | 1.26 | 1.3 | 1.12
[5], days in culture: 364 | 1.68 | 1.19 | 1.35 | 1.35 | 1.13 | 1.21 | 0.902 | 1.55
